These results are taken from patent US7018796B2, “Preincubation assay methods” (Shionogi & Co., Ltd., priority 2000, dated 2006).

The structures appear in SMILES notation.

Assay [1] addresses T1, HCV RNA-dependent RNA polymerase (Hepatitis C virus genotype 1a, UniProt P27958).
T1 construct: HCV RNA-dependent RNA polymerase is encoded in the NS5B (nonstructural protein 5B) region of HCV; made in house; host or cells: insect cells or E. coli
The assay is described as follows: Pre-incubation assay method with 3H-UTP (Example 1). It counts as biochemical. The protocol: A HCV RNA-dependent RNA polymerase, template RNA, primer RNA and Mg ion (Mg^2+) are pre-incubated at approximately 25° C. for approximately 1 hour. After that, substrate RNA and a test substance are added to start an enzyme reaction and measure an enzyme activity. IC50 value can be calculated by comparing with an enzyme activity measured in the absence of a test substance as well as the above prior method. An inhibitor can be selected by comparing IC50. An example of a procedure of this method is shown in the later described Example 1.
A cDNA encoding HCV RNA-dependent RNA polymerase was made by use of HCV positive human plasma and HCV RNA-dependent RNA polymerase was expressed using the insect cells or the E. coli. HCV RNA-dependent RNA polymerase in the cell extract was purified by use of an anion exchange chromatography, a heparin affinity chromatography, a polyU affinity chromatography, a cation exchange chromatography and gel filtration chromatography. The purification was performed at 4° C. and Tris buffer (pH 7.5) containing ethylenediaminetetraacetic acid (1 mM), dithiothreitol (10 mM) and glycerol (20%) was used. The enzyme purified was stored at 4° C. until use for the assays.
• 1) The buffer I ^1) (10.5 μl) containing Tris-HCl (100 mM, pH 7.5), MgCl2 (25 mM), dithiothreitol (5 mM), KCl (125 mM) and ethylenediaminetetraacetic acid (5 mM) was transferred to a polypropylene tube and then poly(A)^2) solution (100 μg/ml, 10.5 μl), oligo(U)12 ^3) solution (1 μg/ml, 10.5 μl) and water (8 μl) were added into the tube and mixed. • 2) Next, HCV RNA-dependent RNA polymerase (10.5 μl) was added into the tube and pre-incubated at 25° C. for […]. • 3) The enzyme solution pre-incubated (50 μl) was added to a test compound (5.26 μl/well) dissolved with dimethyl sulfoxide or water in a well of a 96-wells microtiter plate. • 4) Additionally, the buffer II (10.6 μl) containing Tris-HCl (100 mM, pH 7.5), MgCl2 (25 mM), dithiothreitol (5 mM), KCl (125 mM), ethylenediaminetetraacetic acid (5 mM) and UTP • 4) (2.1 μM, 1 μCi ^3H-UTP), was mixed with water (39.4 μl). The mixture (50 μl) was added into the well and mix, and then the enzyme reaction was performed at 25° C. for 30 min. • 5) After enzyme reaction for 30 min, the enzyme reaction was stopped by adding disodium ethylenediaminetetraacetic acid (50 mM, 50 μl). • 6) By use of the cell-harvester, all volume of the enzyme reaction sample was transferred onto a filtermat bound with diethylaminoethyl base (referred to as DEAE-filtermat) and washed twice for 10 sec with sodium phosphate buffer (0.25 M, pH 7.0) and once for 10 sec with de-ionized water. • 7) The DEAE-filtermat was dried at 95° C. for 15 min and transferred into a sample bag with liquid scintillater (10 ml), and then a sample bag was sealed. • 8) The radio activity was measured by a scintillation counter. • 9) The inhibitory rate was calculated from the radioactivity measured (ccpm) as follows. [formula]
The concentration of compound at 50% inhibition (IC50 value) was calculated from the compound concentration used and the inhibitory rate calculated.
When use of a compound at a μg/ml results in A % inhibition and use of a compound at β μg/ml results in B % inhibition on condition of A≧50>B the IC50 value is obtained by the calculation as follows. IC50 (μg/ml)=10^[(50−B)/(A−B)×(log^α^−log^β^)+log^β^]

Assay [2] deals with T1, HCV RNA-dependent RNA polymerase. Briefly: Time course of HCV RdRp inhibitory effect against pre-incubation time and temperature (Examinations 3 and 4). In kind it is biochemical. To be noted: for Influence of pre-incubation time on inhibitory effect (FIG. 5): pre-incubation time 0 to 180 min; for Influence of pre-incubation on inhibitory effect at 2° C., 20° C. and 25° C. (FIG. 6, FIG. 7): pre-incubation at any temperature. The protocol:
In the screening for HCV RNA-dependent RNA polymerase inhibitor, there is a dissociation of inhibitory effect as a different point between an assay method of the present invention and a prior assay method. […] Therefore, the influence of pre-incubation on the inhibitory value of enzyme inhibitor was determined. Using several compounds which evaluated RdRp inhibition in the prior assay method, the time course of HCV RdRp inhibitory effect was determined for 0 min, 15 min, 30 min, 45 min, 60 min, 90 min, 120 min, 150 min and 180 min as a pre-incubation time (FIG. 5).
Influence of pre-incubation on inhibitory value of enzyme inhibitor was determined in Examination 3. The temperature of pre-incubation in Examination 3 was changed and the time course of inhibitory effect was determined at variant temperature of pre-incubation.
Using several compounds, 3′-dUTP, compound I-1 and compound C, which evaluated RdRp inhibition in the prior assay method, the time course of HCV RdRp inhibitory effect was determined at 2° C., 20° C. and 25° C. as a pre-incubation temperature for 0 min, 20 min, 40 min, 60 min, 80 min, and 100 min as a pre-incubation time (FIG. 6, FIG. 7, FIG. 8).

Where [3] appears, read: with pre-incubation, I-1 0.5 μg/ml, 3′-dUTP 0.7 μM, A 100 μg/ml, B 50 μg/ml, C 25 μg/ml.

T1 sequence (P27958 2421-3011): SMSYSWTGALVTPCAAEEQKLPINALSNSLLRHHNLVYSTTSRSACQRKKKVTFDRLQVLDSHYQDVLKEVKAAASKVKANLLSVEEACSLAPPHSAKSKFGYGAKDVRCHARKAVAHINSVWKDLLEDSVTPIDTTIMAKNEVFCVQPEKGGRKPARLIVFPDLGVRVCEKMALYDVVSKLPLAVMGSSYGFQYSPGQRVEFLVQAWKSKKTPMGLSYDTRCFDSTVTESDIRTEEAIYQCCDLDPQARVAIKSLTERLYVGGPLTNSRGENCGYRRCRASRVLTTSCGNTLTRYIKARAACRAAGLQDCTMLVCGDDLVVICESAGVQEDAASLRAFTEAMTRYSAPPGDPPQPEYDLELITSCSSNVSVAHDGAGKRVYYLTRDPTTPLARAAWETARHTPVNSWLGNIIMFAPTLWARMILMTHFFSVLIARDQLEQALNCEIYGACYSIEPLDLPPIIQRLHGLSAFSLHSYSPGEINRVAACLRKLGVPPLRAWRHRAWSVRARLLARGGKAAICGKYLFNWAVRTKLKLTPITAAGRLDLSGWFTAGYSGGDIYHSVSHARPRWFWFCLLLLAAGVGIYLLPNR

Regarding `O=C1NC(=O)C(=Cc2ccc(OCCc3cccc4ccccc34)cc2)C(=O)N1` [Compound B], the “Judgement in the pre-incubation method (positive / negative)” value (from here on “Judgement … (positive / negative)”) in assay [1] (with pre-incubation) is reported as “negative”. For the same compound, the “Inhibitory rate (Table 2)” value in assay [1] (setting [3]) is given as 1%. The “Influence of pre-incubation time on inhibitory effect (FIG. 5)” value (“Influence … on inhibitory effect (FIG. 5)” below) in assay [2] was “inhibitory effect decreased with increasing pre-incubation time”.
For `O=C(O)/C(O)=C/C(=O)c1cccc(O)c1` [Compound I-1], the inhibition at 100 µg/mL in assay [1] (100 μg/ml, pre-incubation 25° C. 60 min, method of Example 1, read-out: Inhibition rate at a concentration of 100 μg/ml) was above 99%. In addition, in assay [1] (pre-incubation 25° C. 60 min, method of Example 1), inhibition was half-maximal at 1920 nM (IC50). In addition, the “Judgement … (positive / negative)” value in assay [1] (with pre-incubation) is given as “positive result”. The inhibition at 0.5 µg/mL in assay [1] (with pre-incubation, I-1 0.5 μg/ml, 3′-dUTP 0.7 μM, A 100 μg/ml, B 50 μg/ml, C 25 μg/ml, read-out: Inhibitory rate (Table 2)) was found to be 62%. Besides, in assay [2] (0 to 100 min), the “Influence of pre-incubation on inhibitory effect at 2° C., 20° C. and 25° C. (FIG. 6, FIG. 7)” value is listed as “not influence by pre-incubation at any temperatures”.
On to `CCCCC1=N/C(=C\c2ccccc2OCC(=O)O)C(=O)N1Cc1ccc(-c2ccccc2-c2nnn[nH]2)cc1` [Compound C], for which, in assay [1] (with pre-incubation), the “Judgement … (positive / negative)” value is “negative result”. For the same compound, the “Inhibitory rate (Table 2)” value in assay [1] (setting [3]) came out at 2%. For the same compound, the “Influence of pre-incubation on inhibitory effect at 2° C. (FIG. 8)” value in assay [2] (pre-incubation temperature 2° C., 0 to 100 min) is given as “did not appear clear influence”. In addition, the “Influence of pre-incubation on inhibitory effect at 20° C. and 25° C. (FIG. 8)” value in assay [2] (pre-incubation temperature 20° C. and 25° C., 0 to 100 min) was “inhibitory effect decreased greatly”. In addition, the “Influence … on inhibitory effect (FIG. 5)” value in assay [2] was “inhibitory effect decreased with increasing pre-incubation time”.
Regarding `O=c1ccn([C@@H]2O[C@H](COP(=O)(O)OP(=O)(O)OP(=O)(O)O)C[C@H]2O)c(=O)[nH]1` [3′-dUTP, 3′-deoxyuridine triphosphate], the “Inhibitory rate (Table 2)” value in assay [1] (setting [3]) stood at 79%. Further, the “Enzyme inhibition rate in a pre-incubation assay method (FIG. 5)” value in assay [1] (with pre-incubation, same concentrations as) is listed as “does not change”. Also, the “Influence of pre-incubation on inhibitory effect at 2° C., 20° C. and 25° C. (FIG. 6, FIG. 7)” value in assay [2] (0 to 100 min) is “not influence by pre-incubation at any temperatures”. For the same compound, the “Influence … on inhibitory effect (FIG. 5)” value in assay [2] is on record as “not a large influence by pre-incubation”.
On to `Cc1oc(-c2ccccc2)nc1CCOc1ccc(C=C2C(=O)NC(=O)NC2=O)cc1` [Compound A], for which the “Judgement … (positive / negative)” value in assay [1] (with pre-incubation) is recorded as “negative”. Besides, the “Inhibitory rate (Table 2)” value in assay [1] (setting [3]) came out at 19%. In addition, the “Influence … on inhibitory effect (FIG. 5)” value in assay [2] was “inhibitory effect decreased with increasing pre-incubation time”.
